Laboratory results from PubChem BioAssay (NCI).
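Here, GI50 denotes the concentration required for 50% inhibition of growth. TGI: concentration producing complete growth inhibition.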

How the values were obtained:
Assay in all cases: growth of human tumour cells (NCI), 384-well format
HL-60(TB) leukemia = tested on: HL-60(TB) leukemia
MOLT-4 leukemia = tested on: MOLT-4 leukemia
SK-MEL-2 melanoma = tested on: SK-MEL-2 melanoma
MCF7 breast = tested on: MCF7 breast
NCI-H460 NSCLC = tested on: NCI-H460 NSCLC
K-562 leukemia = tested on: K-562 leukemia
LOX IMVI melanoma = tested on: LOX IMVI melanoma
MDA-MB-435 melanoma = tested on: MDA-MB-435 melanoma
PC-3 prostate = tested on: PC-3 prostate
MALME-3M melanoma = tested on: MALME-3M melanoma
MDA-MB-468 breast = tested on: MDA-MB-468 breast
M14 melanoma = tested on: M14 melanoma
KM12 colon = tested on: KM12 colon
NCI-H322M lung = tested on: NCI-H322M lung
MDA-MB-231 breast = tested on: MDA-MB-231 breast
SNB-19 CNS = tested on: SNB-19 CNS
IGROV1 ovarian = tested on: IGROV1 ovarian
CCRF-CEM leukemia = tested on: CCRF-CEM leukemia
HCT-15 colon = tested on: HCT-15 colon
SK-MEL-28 melanoma = tested on: SK-MEL-28 melanoma
UACC-257 melanoma = tested on: UACC-257 melanoma
A498 renal = tested on: A498 renal
SN12C renal = tested on: SN12C renal
OVCAR-8 ovarian = tested on: OVCAR-8 ovarian
CAKI-1 renal = tested on: CAKI-1 renal
HOP-62 NSCLC = tested on: HOP-62 NSCLC
HT29 colon = tested on: HT29 colon
OVCAR-4 ovarian = tested on: OVCAR-4 ovarian
SR leukemia = tested on: SR leukemia
COLO 205 colon = tested on: COLO 205 colon
A549 NSCLC = tested on: A549 NSCLC
OVCAR-3 ovarian = tested on: OVCAR-3 ovarian
DU-145 prostate = tested on: DU-145 prostate
U251 glioblastoma = tested on: U251 glioblastoma
SF-295 CNS = tested on: SF-295 CNS
BT-549 breast = tested on: BT-549 breast
NCI/ADR-RES ovarian = tested on: NCI/ADR-RES ovarian
SW-620 colon = tested on: SW-620 colon
RXF 393 renal = tested on: RXF 393 renal
OVCAR-5 ovarian = tested on: OVCAR-5 ovarian
TK-10 renal = tested on: TK-10 renal
NCI-H226 lung = tested on: NCI-H226 lung
SF-539 CNS = tested on: SF-539 CNS
SK-OV-3 ovarian = tested on: SK-OV-3 ovarian
NCI-H522 lung = tested on: NCI-H522 lung
HCC-2998 colon = tested on: HCC-2998 colon
HCT-116 colon = tested on: HCT-116 colon
RPMI-8226 leukemia = tested on: RPMI-8226 leukemia
SK-MEL-5 melanoma = tested on: SK-MEL-5 melanoma
786-0 renal = tested on: 786-0 renal
UACC-62 melanoma = tested on: UACC-62 melanoma
NCI-H23 lung = tested on: NCI-H23 lung
SF-268 CNS = tested on: SF-268 CNS
ACHN renal = tested on: ACHN renal
UO-31 renal = tested on: UO-31 renal
HOP-92 NSCLC = tested on: HOP-92 NSCLC
T-47D breast = tested on: T-47D breast

## Cc1c(C)n(CCCN2CCN(C)CC2)c2ccc(Oc3cccc(C(=O)N4CCN(CCc5ccc(F)cc5)CC4)c3)cc12
HL-60(TB) leukemia
  GI50: 2030 nM
  TGI: 3460 nM
MOLT-4 leukemia
  GI50: 1810 nM
  TGI: 3200 nM
SK-MEL-2 melanoma
  GI50: 1760 nM
  TGI: 3140 nM
MCF7 breast
  GI50: 1720 nM
  TGI: 3110 nM
NCI-H460 NSCLC
  GI50: 1850 nM
  TGI: 3320 nM
K-562 leukemia
  GI50: 1430 nM
  TGI: 2760 nM
LOX IMVI melanoma
  GI50: 2090 nM
  TGI: 3540 nM
MDA-MB-435 melanoma
  GI50: 1720 nM
  TGI: 3110 nM
PC-3 prostate
  GI50: 1650 nM
  TGI: 3020 nM
MALME-3M melanoma
  GI50: 1410 nM
  TGI: 2710 nM
MDA-MB-468 breast
  GI50: 1390 nM
  TGI: 2690 nM
M14 melanoma
  GI50: 1600 nM
  TGI: 2960 nM
KM12 colon
  GI50: 1720 nM
  TGI: 3120 nM
NCI-H322M lung
  GI50: 1640 nM
  TGI: 3010 nM
MDA-MB-231 breast
  GI50: 1910 nM
  TGI: 3320 nM
SNB-19 CNS
  GI50: 1710 nM
  TGI: 3100 nM
IGROV1 ovarian
  GI50: 1580 nM
  TGI: 2940 nM
CCRF-CEM leukemia
  GI50: 1630 nM
  TGI: 2990 nM
HCT-15 colon
  GI50: 1430 nM
  TGI: 2750 nM
SK-MEL-28 melanoma
  GI50: 1680 nM
  TGI: 3060 nM
UACC-257 melanoma
  GI50: 889 nM
  TGI: 2100 nM
A498 renal
  GI50: 1520 nM
  TGI: 2860 nM
SN12C renal
  GI50: 1630 nM
  TGI: 2990 nM
OVCAR-8 ovarian
  GI50: 1620 nM
  TGI: 3000 nM
CAKI-1 renal
  GI50: 1510 nM
  TGI: 2850 nM
HOP-62 NSCLC
  GI50: 1630 nM
  TGI: 3000 nM
HT29 colon
  GI50: 1450 nM
  TGI: 2800 nM
OVCAR-4 ovarian
  GI50: 1750 nM
  TGI: 3130 nM
SR leukemia
  GI50: 1460 nM
  TGI: 2790 nM
COLO 205 colon
  GI50: 1680 nM
  TGI: 3070 nM
A549 NSCLC
  GI50: 1600 nM
  TGI: 2980 nM
OVCAR-3 ovarian
  GI50: 1610 nM
  TGI: 2970 nM
DU-145 prostate
  GI50: 1730 nM
  TGI: 3130 nM
U251 glioblastoma
  GI50: 1700 nM
  TGI: 3100 nM
SF-295 CNS
  GI50: 1800 nM
  TGI: 3200 nM
BT-549 breast
  GI50: 1320 nM
  TGI: 2600 nM
NCI/ADR-RES ovarian
  GI50: 1570 nM
  TGI: 2920 nM
SW-620 colon
  GI50: 1770 nM
  TGI: 3190 nM
RXF 393 renal
  GI50: 1420 nM
  TGI: 2730 nM
OVCAR-5 ovarian
  GI50: 1660 nM
  TGI: 3030 nM
TK-10 renal
  GI50: 1590 nM
  TGI: 2940 nM
NCI-H226 lung
  GI50: 1590 nM
  TGI: 2940 nM
SF-539 CNS
  GI50: 1610 nM
  TGI: 2980 nM
SK-OV-3 ovarian
  GI50: 1520 nM
  TGI: 2860 nM
NCI-H522 lung
  GI50: 1680 nM
  TGI: 3050 nM
HCC-2998 colon
  GI50: 1430 nM
  TGI: 2740 nM
HCT-116 colon
  GI50: 1470 nM
  TGI: 2800 nM
RPMI-8226 leukemia
  GI50: 1300 nM
  TGI: 2560 nM
SK-MEL-5 melanoma
  GI50: 1280 nM
  TGI: 2550 nM
786-0 renal
  GI50: 1520 nM
  TGI: 2870 nM
UACC-62 melanoma
  GI50: 1780 nM
  TGI: 3170 nM
NCI-H23 lung
  GI50: 1500 nM
  TGI: 2830 nM
SF-268 CNS
  GI50: 1780 nM
  TGI: 3180 nM
ACHN renal
  GI50: 1610 nM
  TGI: 2980 nM
UO-31 renal
  GI50: 1610 nM
  TGI: 2970 nM
HOP-92 NSCLC
  GI50: 1430 nM
  TGI: 2740 nM
T-47D breast
  GI50: 1490 nM
  TGI: 2820 nM
